Results from patent US7964723B2, “And practical process for exclusively producing (S)-9-fluoro-3-methyl-10-(4-methyl-1-piperazinyl)-7-oxo-2,3-dihydro-7H-pyrido-[1,2,3,de][1,4]benzoxazine-6-carboxylic acid hemihydrate” (Apeloa-Kangyu, priority 2008, dated 2011).
Like-named read-outs stand apart in the source and are kept apart here.

Assays:
[1] = tested on: gram-positive and gram-negative bacteria; details: cited from earlier work
[2] = loss of crystal water on drying; type: physicochemical; details: 50° C. under vacuum of around 60 mm/Hg for a couple of hours; theoretical water 2.43%
From the text: Levofloxacin hemihydrate contains a theoretical amount of water of 2.43%.

[3] = hemihydrate compared with monohydrate; cited from earlier work
[4] = cited from earlier work

| Structure (SMILES) | potency in inhibiting the multiplication of bacteria relative to its (+)-enantiomer ([1]; gram-positive and gram-negative bacteria, versus (+)-enantiomer) | activity relative to its racemate, ofloxacine ([1]; versus racemate) | water lost by drying [2] | phase stability as a drug substance [3] | drying temperature at which crystal water is lost (anhydrous form results) ([4]; under atmospheric pressure) | drying temperature at which crystal water is lost (anhydrous form results) ([4]; under reduced pressure) |
| --- | --- | --- | --- | --- | --- | --- |
| C[C@H]1COc2c(N3CCN(C)CC3)c(F)cc3c(=O)c(C(=O)O)cn1c23 [Levofloxacin, (S)-9-fluoro-3-methyl-10-(4-methyl-1-piperazinyl)-7-oxo-2,3-dihydro-7H-pyrido-[1,2,3-de][1,4]benzoxazine-6-carboxylic acid] | 8-128 times | approximately 2 times | – | – | – | – |
| C[C@H]1COc2c(N3CCN(C)CC3)c(F)cc3c(=O)c(C(=O)O)cn1c23 [Levofloxacin hemihydrate, (−)-(S)-9-fluoro-3-methyl-10-(4-methyl-1-piperazinyl)-7-oxo-2,3-dihydro-7H-pyrido-[1,2,3-de] [1,4] benzoxazine-6-carboxylic acid hemihydrate] | – | – | 0.20-0.30% | superior to the monohydrate | around 70 °C | around 60 °C |
